Molecular target: T1, Aurora B (Homo sapiens, UniProt Q96GD4)
T1 construct: cell lysates from Jurkat cells (ATCC TIB-152) used; endogenous in cells; host or cells: Jurkat cells (ATCC TIB-152), treated with pervanadate
Assay: Kinobeads assay, Aurora B
Type: binding
Conditions: for IC50: lysate of pervanadate-treated Jurkat cells, read-out: Inhibition values (IC50) Aur B

T1 sequence (Q96GD4 whole entry): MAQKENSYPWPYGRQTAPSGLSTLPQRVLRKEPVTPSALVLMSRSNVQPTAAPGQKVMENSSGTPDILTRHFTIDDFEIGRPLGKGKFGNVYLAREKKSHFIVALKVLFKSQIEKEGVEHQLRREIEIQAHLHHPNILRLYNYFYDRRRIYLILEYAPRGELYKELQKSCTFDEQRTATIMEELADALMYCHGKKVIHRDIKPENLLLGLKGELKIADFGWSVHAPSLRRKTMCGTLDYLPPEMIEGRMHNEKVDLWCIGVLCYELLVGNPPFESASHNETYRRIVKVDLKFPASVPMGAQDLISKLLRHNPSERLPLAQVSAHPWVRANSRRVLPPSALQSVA

CN(C)CCCn1cc(Nc2ncc3cnn(Cc4c(F)c(F)cc(N5CCOCC5)c4F)c3n2)cn1 [Example 42, N-(1-(3-(Dimethylamino)propyl)-1H-pyrazol-4-yl)-1-(2,3,6-trifluoro-5-morpholinobenzyl)-1H-pyrazolo[3,4-d]pyrimidin-6-amine]
JAK3/AurB Fold Selectivity: 10-50 Fold
IC50: 0.1 to 1 µM

CN(C)CCCn1cc(Nc2ncc3cnn(Cc4cccc(N5CCOCC5)c4F)c3n2)cn1 [Example 43, N-(1-(3-(Dimethylamino)propyl)-1H-pyrazol-4-yl)-1-(2-fluoro-3-morpholinobenzyl)-1H-pyrazolo[3,4-d]pyrimidin-6-amine]
JAK3/AurB Fold Selectivity: >50 Fold
IC50: 0.1 to 1 µM

OCCn1cc(Nc2ncc3cnn(Cc4cc(N5CCOCC5)ccc4F)c3n2)cn1 [Example 44, 2-(4-((1-(2-Fluoro-5-morpholinobenzyl)-1H-pyrazolo[3,4-d]pyrimidin-6-yl)amino)-1H-pyrazol-1-yl)ethanol]
JAK3/AurB Fold Selectivity: 10-50 Fold
IC50: 0.1 to 1 µM

OCCn1cc(Nc2ncc3cnn(Cc4c(F)c(F)cc(N5CCOCC5)c4F)c3n2)cn1 [Example 45, 2-(4-((1-(2,3,6-Trifluoro-5-morpholinobenzyl)-1H-pyrazolo[3,4-d]pyrimidin-6-yl)amino)-1H-pyrazol-1-yl)ethanol]
JAK3/AurB Fold Selectivity: 10-50 Fold
IC50: 0.1 to 1 µM

O=C1COCCN1c1cccc(Cn2ncc3cnc(Nc4cnn(CCO)c4)nc32)c1F [Example 46, 4-(2-Fluoro-3-((6-((1-(2-hydroxyethyl)-1H-pyrazol-4-yl)amino)-1H-pyrazolo[3,4-d]pyrimidin-1-yl)methyl)phenyl)morpholin-3-one]
JAK3/AurB Fold Selectivity: 10-50 Fold
IC50: 0.1 to 1 µM

OCCn1cc(Nc2ncc3cnn(Cc4cccc(N5CCNCC5)c4)c3n2)cn1 [Example 47, 2-(4-((1-(3-(piperazin-1-yl)benzyl)-1H-pyrazolo[3,4-d]pyrimidin-6-yl)amino)-1H-pyrazol-1-yl)ethanol]
JAK3/AurB Fold Selectivity: 10-50 Fold
IC50: 0.1 to 1 µM

c1cc(Cn2ncc3cnc(Nc4cnn(CC5CCCNC5)c4)nc32)cc(N2CCOCC2)c1 (stereo not shown) [Example 48, 1-(3-Morpholinobenzyl)-N-(1-(piperidin-3-ylmethyl)-1H-pyrazol-4-yl)-1H-pyrazolo[3,4-d]pyrimidin-6-amine]
JAK3/AurB Fold Selectivity: >50 Fold
IC50: 1 to 10 µM

Cn1cc(Nc2ncc3cnn(Cc4cc(F)cc(N5CCOCC5)c4)c3n2)cn1 [Example 49, 1-(3-Fluoro-5-morpholinobenzyl)-N-(1-methyl-1H-pyrazol-4-yl)-1H-pyrazolo[3,4-d]pyrimidin-6-amine]
JAK3/AurB Fold Selectivity: >50 Fold
IC50: 1 to 10 µM

CN(C)CCCn1cc(Nc2ncc3cnn(Cc4cccc(N5CCOCC5=O)c4F)c3n2)cn1 [Example 50, 4-(3-((6-((1-(3-(Dimethylamino)propyl)-1H-pyrazol-4-yl)amino)-1H-pyrazolo[3,4-d]pyrimidin-1-yl)methyl)-2-fluorophenyl)morpholin-3-one]
JAK3/AurB Fold Selectivity: >50 Fold
IC50: 0.1 to 1 µM

OCCn1cc(Nc2ncc3cnn(Cc4cc(F)cc(N5CCOCC5)c4)c3n2)cn1 [Example 51, 2-(4-((1-(3-Fluoro-5-morpholinobenzyl)-1H-pyrazolo[3,4-d]pyrimidin-6-yl)amino)-1H-pyrazol-1-yl)ethanol]
JAK3/AurB Fold Selectivity: >50 Fold
IC50: 0.1 to 1 µM

Cn1cc(Nc2ncc3cnn(Cc4cc(F)cc(N5CCOCC5=O)c4)c3n2)cn1 [Example 52, 4-(3-Fluoro-5-((6-((1-methyl-1H-pyrazol-4-yl)amino)-1H-pyrazolo[3,4-d]pyrimidin-1-yl)methyl)phenyl)morpholin-3-one]
JAK3/AurB Fold Selectivity: >50 Fold
IC50: 1 to 10 µM

Cn1cc(Nc2ncc3cnn(Cc4cc(N5CCOCC5=O)cc(F)c4F)c3n2)cn1 [Example 53, 4-(3,4-Difluoro-5-((6-((1-methyl-1H-pyrazol-4-yl)amino)-1H-pyrazolo[3,4-d]pyrimidin-1-yl)methyl)phenyl)morpholin-3-one]
JAK3/AurB Fold Selectivity: >50 Fold
IC50: 0.1 to 1 µM

Cn1cc(Nc2ncc3cnn(Cc4cccc(N5CCNCC5=O)c4F)c3n2)cn1 [Example 54, 1-(2-Fluoro-3-((6-((1-methyl-1H-pyrazol-4-yl)amino)-1H-pyrazolo[3,4-d]pyrimidin-1-yl)methyl)phenyl)piperazin-2-one]
JAK3/AurB Fold Selectivity: >50 Fold
IC50: 1 to 10 µM

O=C1CNCCN1c1cccc(Cn2ncc3cnc(Nc4cnn(CCO)c4)nc32)c1F [Example 55, 1-(2-Fluoro-3-((6-((1-(2-hydroxyethyl)-1H-pyrazol-4-yl)amino)-1H-pyrazolo[3,4-d]pyrimidin-1-yl)methyl)phenyl)piperazin-2-one]
JAK3/AurB Fold Selectivity: 10-50 Fold
IC50: 0.1 to 1 µM

OCCn1cc(Nc2ncc3cnn(Cc4cc(N5CCOCC5)cc(F)c4F)c3n2)cn1 [Example 56, 2-(4-((1-(2,3-Difluoro-5-morpholinobenzyl)-1H-pyrazolo[3,4-d]pyrimidin-6-yl)amino)-1H-pyrazol-1-yl)ethanol]
JAK3/AurB Fold Selectivity: >50 Fold
IC50: 1 to 10 µM

O=C1CNCCN1c1cccc(Cn2ncc3cnc(Nc4cnn(CCO)c4)nc32)c1 [Example 57, 1-(3-((6-((1-(2-Hydroxyethyl)-1H-pyrazol-4-yl)amino)-1H-pyrazolo[3,4-d]pyrimidin-1-yl)methyl)phenyl)piperazin-2-one]
JAK3/AurB Fold Selectivity: 10-50 Fold
IC50: 0.1 to 1 µM

O=C1COCCN1c1cc(F)cc(Cn2ncc3cnc(Nc4cnn(CCO)c4)nc32)c1 [Example 58, 4-(3-Fluoro-5-((6-((1-(2-hydroxyethyl)-1H-pyrazol-4-yl)amino)-1H-pyrazolo[3,4-d]pyrimidin-1-yl)methyl)phenyl)morpholin-3-one]
JAK3/AurB Fold Selectivity: 10-50 Fold
IC50: 0.1 to 1 µM

O=C1COCCN1c1cc(F)c(F)c(Cn2ncc3cnc(Nc4cnn(CCO)c4)nc32)c1 [Example 59, 4-(3,4-Difluoro-5-((6-((1-(2-hydroxyethyl)-1H-pyrazol-4-yl)amino)-1H-pyrazolo[3,4-d]pyrimidin-1-yl)methyl)phenyl)morpholin-3-one]
JAK3/AurB Fold Selectivity: 10-50 Fold
IC50: 0.1 to 1 µM

c1cc(Cn2ncc3cnc(Nc4cnn(CC5CCNC5)c4)nc32)cc(N2CCOCC2)c1 (stereo not shown) [Example 60, 1-(3-Morpholinobenzyl)-N-(1-(pyrrolidin-3-ylmethyl)-1H-pyrazol-4-yl)-1H-pyrazolo[3,4-d]pyrimidin-6-amine]
JAK3/AurB Fold Selectivity: >50 Fold
IC50: 1 to 10 µM

Cn1cc(Nc2ncc3cnn(Cc4c(F)c(F)cc(N5CCOCC5=O)c4F)c3n2)cn1 [Example 61, 4-(2,4,5-Trifluoro-3-((6-((1-methyl-1H-pyrazol-4-yl)amino)-1H-pyrazolo[3,4-d]pyrimidin-1-yl)methyl)phenyl)morpholin-3-one]
JAK3/AurB Fold Selectivity: 10-50 Fold
IC50: 0.1 to 1 µM

O=C1COCCN1c1cc(F)c(F)c(Cn2ncc3cnc(Nc4cnn(CCO)c4)nc32)c1F [Example 62, 4-(2,4,5-Trifluoro-3-((6-((1-(2-hydroxyethyl)-1H-pyrazol-4-yl)amino)-1H-pyrazolo[3,4-d]pyrimidin-1-yl)methyl)phenyl)morpholin-3-one]
JAK3/AurB Fold Selectivity: 10-50 Fold
IC50: 0.1 to 1 µM

O=C1CNCCN1c1cc(F)cc(Cn2ncc3cnc(Nc4cnn(CCO)c4)nc32)c1 [Example 63, 1-(3-Fluoro-5-((6-((1-(2-hydroxyethyl)-1H-pyrazol-4-yl)amino)-1H-pyrazolo[3,4-d]pyrimidin-1-yl)methyl)phenyl)piperazin-2-one]
JAK3/AurB Fold Selectivity: 3-10 Fold
IC50: < 0.1 µM

Cn1cc(Nc2ncc3cnn(Cc4cc(F)cc(N5CCNCC5=O)c4)c3n2)cn1 [Example 64, 1-(3-Fluoro-5-((6-((1-methyl-1H-pyrazol-4-yl)amino)-1H-pyrazolo[3,4-d]pyrimidin-1-yl)methyl)phenyl)piperazin-2-one]
JAK3/AurB Fold Selectivity: 10-50 Fold
IC50: 0.1 to 1 µM

COC1CN(c2cccc(Cn3ncc4cnc(Nc5cnn(C)c5)nc43)c2)C1 [Example 65, 1-(3-(3-Methoxyazetidin-1-yl)benzyl)-N-(1-methyl-1H-pyrazol-4-yl)-1H-pyrazolo[3,4-d]pyrimidin-6-amine]
JAK3/AurB Fold Selectivity: >50 Fold
IC50: 1 to 10 µM

Cn1cc(Nc2ncc3cnn(Cc4c(F)c(F)cc(N5CCNCC5)c4F)c3n2)cn1 [Example 66, N-(1-Methyl-1H-pyrazol-4-yl)-1-(2,3,6-trifluoro-5-(piperazin-1-yl)benzyl)-1H-pyrazolo[3,4-d]pyrimidin-6-amine]
JAK3/AurB Fold Selectivity: 3-10 Fold
IC50: < 0.1 µM

Cn1cc(Nc2ncc3cnn(Cc4cccc(N5CCNCC5)c4F)c3n2)cn1 [Example 67, 1-(2-Fluoro-3-(piperazin-1-yl)benzyl)-N-(1-methyl-1H-pyrazol-4-yl)-1H-pyrazolo[3,4-d]pyrimidin-6-amine]
JAK3/AurB Fold Selectivity: 10-50 Fold
IC50: 0.1 to 1 µM

CNC(=O)Cn1cc(Nc2ncc3cnn(Cc4cc(F)cc(N5CCOCC5=O)c4)c3n2)cn1 [Example 68, 2-(4-((1-(3-Fluoro-5-(3-oxomorpholino)benzyl)-1H-pyrazolo[3,4-d]pyrimidin-6-yl)amino)-1H-pyrazol-1-yl)-N-methylacetamide]
JAK3/AurB Fold Selectivity: >50 Fold
IC50: 0.1 to 1 µM

Cn1cc(Nc2ncc3cnn(Cc4c(F)ccc(N5CCOCC5=O)c4F)c3n2)cn1 [Example 69, 4-(2,4-Difluoro-3-((6-((1-methyl-1H-pyrazol-4-yl)amino)-1H-pyrazolo[3,4-d]pyrimidin-1-yl)methyl)phenyl)morpholin-3-one]
JAK3/AurB Fold Selectivity: 10-50 Fold
IC50: 0.1 to 1 µM

CN(C)CCCn1cc(Nc2ncc3cnn(Cc4c(F)c(F)cc(N5CCOCC5=O)c4F)c3n2)cn1 [Example 70, 4-(3-((6-((1-(3-(Dimethylamino)propyl)-1H-pyrazol-4-yl)amino)-1H-pyrazolo[3,4-d]pyrimidin-1-yl)methyl)-2,4,5-trifluorophenyl)morpholin-3-one]
JAK3/AurB Fold Selectivity: 10-50 Fold
IC50: 0.1 to 1 µM

Reference: patent publication US9040545B2, “Heterocyclyl pyrazolopyrimidine analogues as selective JAK inhibitors” (Cellzome Limited, priority 2010, dated 2015)
